Molecular target: T1, GAT-1 (Homo sapiens, UniProt P30531)
T1 construct: expressed in transfected cells; host or cells: SH-SY5Y (human neuroblastoma cell line), transient transfection with Lipofectamine 3000
Assay: Tritiated [3H]GABA uptake assay in transfected SH-SY5Y cells
Format: cell-based
Settings: CI-966 100 μM in 0.8% DMSO, 10 min at 37° C.
Excerpt: SH-SY5Y cells (human neuroblastoma cell line) were transfected with the constructs as described in Example 1 using Lipofectamine 3000 and following manufacturer instructions. The positive control consisted of a plasmid encoding hSLC6A1 under the control of a CAG promoter expressed together with a tagRFP fluorescent protein whilst as negative control (and a matching plasmid lacking the hSLC6A1 sequence. At 2 days post transfection, SH-SY5Y cells were attested for either ICC analysis of GABA uptake assay. Briefly, ICC analysis was performed as follow: cells were fixed with 4% paraformaldehyde and stained with the primary antibodies rabbit monoclonal anti-GAT-1 (Ref: ab177483; Abcam™, Cambridge, MA, USA) at 1:250. Cells were then stained with goat anti-rabbit secondary antibodies conjugated to Alexa Fluor 488 at 1:1,000 prior to imaging. For the GABA uptake assay, cells were previously seeded on scintillating microplates. […] Cells were then treated with a mixture of tritiated and cold GABA ([3H]GABA 8 μCi/ml and 15 μM GABA final concentrations) for 10 min at 37° C. and the reaction was stopped using 1 mM cold GABA before quantification of the radioactivity with a Microbeta instrument (Perkin Elmer).

T1 sequence (P30531 whole entry): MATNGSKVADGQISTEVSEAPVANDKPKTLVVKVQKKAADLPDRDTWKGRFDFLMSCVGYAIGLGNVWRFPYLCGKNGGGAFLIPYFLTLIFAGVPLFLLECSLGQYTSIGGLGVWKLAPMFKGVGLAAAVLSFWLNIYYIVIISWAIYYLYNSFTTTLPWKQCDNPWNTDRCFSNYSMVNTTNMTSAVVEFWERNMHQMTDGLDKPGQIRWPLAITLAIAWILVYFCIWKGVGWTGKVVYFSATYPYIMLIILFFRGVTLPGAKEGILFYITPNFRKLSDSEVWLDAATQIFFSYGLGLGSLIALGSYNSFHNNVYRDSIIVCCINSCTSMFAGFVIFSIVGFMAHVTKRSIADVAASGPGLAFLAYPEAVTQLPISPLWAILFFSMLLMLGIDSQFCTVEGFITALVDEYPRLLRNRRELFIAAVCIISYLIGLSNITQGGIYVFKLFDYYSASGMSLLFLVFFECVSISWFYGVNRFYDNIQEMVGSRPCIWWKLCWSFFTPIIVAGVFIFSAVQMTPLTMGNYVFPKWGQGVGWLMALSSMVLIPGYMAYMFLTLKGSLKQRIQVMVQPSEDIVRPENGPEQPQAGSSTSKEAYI

O=C(O)C1=CCCN(CCOC(c2ccc(C(F)(F)F)cc2)c2ccc(C(F)(F)F)cc2)C1 [GAT-1 inhibitor]
uptake of [3H]GABA when cells treated with inhibitor: inhibited

— patent publication US20230365652A1, “Nucleic Acid Constructs, Viral Vectors and Viral Particles” (priority 2020, published 2023)
